Test system: 328373-195-R-J1-PDC complex spheroids, viability % test/control
Test: Anticancer human tumor 328373-195-R-J1-PDC patient-derived head and neck squamous carcinoma cell line growth inhibition [CLK]
Settings: for IC50: curve of first compound; for viability, T/C: stronger effect = lower value
How it was run: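 Patient-derived tumor cells grown as complex spheroids with HUVEC endothelial cells and mesenchymal stem cells, treated with drug combinations. Concentrations descend in half-log steps from near clinical Cmax, or from 10 microM if Cmax unknown.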

[1] = second compound 0.0316 µM, first compound 0.0316 µM
[2] = second compound 0.0316 µM, first compound 0.1 µM
[3] = second compound 0.0316 µM, first compound 0.316 µM
[4] = second compound 0.0316 µM, first compound 1 µM
[5] = second compound 0.0316 µM, first compound 3.16 µM
[6] = second compound 0.0316 µM, first compound 10 µM
[7] = second compound 0.1 µM, first compound 0.0316 µM
[8] = second compound 0.1 µM, first compound 0.1 µM
[9] = second compound 0.1 µM, first compound 0.316 µM
[10] = second compound 0.1 µM, first compound 1 µM
[11] = second compound 0.1 µM, first compound 3.16 µM
[12] = second compound 0.1 µM, first compound 10 µM
[13] = second compound 0.316 µM, first compound 0.0316 µM
[14] = second compound 0.316 µM, first compound 0.1 µM
[15] = second compound 0.316 µM, first compound 0.316 µM
[16] = second compound 0.316 µM, first compound 1 µM
[17] = second compound 0.316 µM, first compound 3.16 µM
[18] = second compound 0.316 µM, first compound 10 µM
[19] = second compound 1 µM, first compound 0.0316 µM
[20] = second compound 1 µM, first compound 0.1 µM
[21] = second compound 1 µM, first compound 0.316 µM
[22] = second compound 1 µM, first compound 1 µM
[23] = second compound 1 µM, first compound 3.16 µM
[24] = second compound 1 µM, first compound 10 µM
[25] = second compound 3.16 µM, first compound 0.0316 µM
[26] = second compound 3.16 µM, first compound 0.1 µM
[27] = second compound 3.16 µM, first compound 0.316 µM
[28] = second compound 3.16 µM, first compound 1 µM
[29] = second compound 3.16 µM, first compound 3.16 µM
[30] = second compound 3.16 µM, first compound 10 µM
[31] = second compound 10 µM, first compound 0.0316 µM
[32] = second compound 10 µM, first compound 0.1 µM
[33] = second compound 10 µM, first compound 0.316 µM
[34] = second compound 10 µM, first compound 1 µM
[35] = second compound 10 µM, first compound 3.16 µM
[36] = second compound 10 µM, first compound 10 µM
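Further: spheroids exposed to the agents for 7 days.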

C=CC(=O)N1CCN(c2nc(=O)n(-c3c(C)ccnc3C(C)C)c3nc(-c4c(O)cccc4F)c(F)cc23)C(C)C1 (stereo unspecified) + CNC(=O)c1ccc(Nc2nc(OC3CCCC3)c3c(-c4ccc5nc(C)oc5c4)c[nH]c3n2)c(OC)c1
IC50 (second compound 0.0316 µM): > 10000 nM | IC50 (second compound 0.1 µM): < 31.6 nM | IC50 (second compound 0.316 µM): < 31.6 nM | IC50 (second compound 1 µM): < 31.6 nM | IC50 (second compound 3.16 µM): < 31.6 nM | IC50 (second compound 10 µM): < 31.6 nM | viability, T/C [1]: 57.3% | viability, T/C [2]: 59.7% | viability, T/C [3]: 60.2% | viability, T/C [4]: 64.9% | viability, T/C [5]: 65.1% | viability, T/C [6]: 47.7% | viability, T/C [7]: 11.2% | viability, T/C [8]: 10.2% | viability, T/C [9]: 11.6% | viability, T/C [10]: 12.8% | viability, T/C [11]: 13.2% | viability, T/C [12]: 9.6% | viability, T/C [13]: 8.33% | viability, T/C [14]: 10.6% | viability, T/C [15]: 9.38% | viability, T/C [16]: 10.4% | viability, T/C [17]: 13.9% | viability, T/C [18]: 10.3% | viability, T/C [19]: 10.1% | viability, T/C [20]: 9.55% | viability, T/C [21]: 9.73% | viability, T/C [22]: 10.4% | viability, T/C [23]: 13.2% | viability, T/C [24]: 8.42% | viability, T/C [25]: 10.1% | viability, T/C [26]: 13.2% | viability, T/C [27]: 10.9% | viability, T/C [28]: 10.9% | viability, T/C [29]: 15.1% | viability, T/C [30]: 10.7% | viability, T/C [31]: 12.8% | viability, T/C [32]: 11.7% | viability, T/C [33]: 12.2% | viability, T/C [34]: 13.3% | viability, T/C [35]: 14.5% | viability, T/C [36]: 8.55%

CCCS(=O)(=O)Nc1ccc(F)c(C(=O)c2c[nH]c3ncc(-c4ccc(Cl)cc4)cc23)c1F + CNC(=O)c1ccc(Nc2nc(OC3CCCC3)c3c(-c4ccc5nc(C)oc5c4)c[nH]c3n2)c(OC)c1
IC50 (second compound 0.0316 µM): > 10000 nM | IC50 (second compound 0.1 µM): < 31.6 nM | IC50 (second compound 0.316 µM): < 31.6 nM | IC50 (second compound 1 µM): < 31.6 nM | IC50 (second compound 3.16 µM): < 31.6 nM | IC50 (second compound 10 µM): < 31.6 nM | viability, T/C [1]: 61.7% | viability, T/C [2]: 59.5% | viability, T/C [3]: 62.4% | viability, T/C [4]: 66.1% | viability, T/C [5]: 56.8% | viability, T/C [6]: 43.3% | viability, T/C [7]: 11.7% | viability, T/C [8]: 10.9% | viability, T/C [9]: 12% | viability, T/C [10]: 15.7% | viability, T/C [11]: 13.9% | viability, T/C [12]: 15.6% | viability, T/C [13]: 10.2% | viability, T/C [14]: 11.3% | viability, T/C [15]: 11% | viability, T/C [16]: 12.2% | viability, T/C [17]: 10.6% | viability, T/C [18]: 13.5% | viability, T/C [19]: 10.9% | viability, T/C [20]: 10.5% | viability, T/C [21]: 11.3% | viability, T/C [22]: 10.7% | viability, T/C [23]: 11.1% | viability, T/C [24]: 15.2% | viability, T/C [25]: 10.8% | viability, T/C [26]: 11.3% | viability, T/C [27]: 10.3% | viability, T/C [28]: 11.4% | viability, T/C [29]: 12.7% | viability, T/C [30]: 15.8% | viability, T/C [31]: 13.8% | viability, T/C [32]: 11.1% | viability, T/C [33]: 11.2% | viability, T/C [34]: 14.1% | viability, T/C [35]: 16.6% | viability, T/C [36]: 16.4%

COC1C=CCC(C)C(C)S(=O)(=O)NC(=O)c2ccc3c(c2)N(CC2CCC21)CC1(CCCc2cc(Cl)ccc21)CO3 (stereo unspecified) + CNC(=O)c1ccc(Nc2nc(OC3CCCC3)c3c(-c4ccc5nc(C)oc5c4)c[nH]c3n2)c(OC)c1
IC50 (second compound 0.0316 µM): 4280 nM | IC50 (second compound 0.1 µM): < 31.6 nM | IC50 (second compound 0.316 µM): < 31.6 nM | IC50 (second compound 1 µM): < 31.6 nM | IC50 (second compound 3.16 µM): < 31.6 nM | IC50 (second compound 10 µM): < 31.6 nM | viability, T/C [1]: 56.2% | viability, T/C [2]: 70.6% | viability, T/C [3]: 81.3% | viability, T/C [4]: 83% | viability, T/C [5]: 66.2% | viability, T/C [6]: 4.89% | viability, T/C [7]: 13% | viability, T/C [8]: 13.1% | viability, T/C [9]: 12.5% | viability, T/C [10]: 15.2% | viability, T/C [11]: 9.14% | viability, T/C [12]: 2.12% | viability, T/C [13]: 12.3% | viability, T/C [14]: 11.6% | viability, T/C [15]: 11.9% | viability, T/C [16]: 8.54% | viability, T/C [17]: 6.49% | viability, T/C [18]: 5.35% | viability, T/C [19]: 12.7% | viability, T/C [20]: 11.2% | viability, T/C [21]: 9.61% | viability, T/C [22]: 8.8% | viability, T/C [23]: 6.45% | viability, T/C [24]: 5.97% | viability, T/C [25]: 11.9% | viability, T/C [26]: 12.1% | viability, T/C [27]: 10.3% | viability, T/C [28]: 7.26% | viability, T/C [29]: 6.87% | viability, T/C [30]: 11.6% | viability, T/C [31]: 13.3% | viability, T/C [32]: 13.5% | viability, T/C [33]: 10.2% | viability, T/C [34]: 8.44% | viability, T/C [35]: 8.98% | viability, T/C [36]: 9.48%

Source: PubChem BioAssay AID2060620 (Molecular Pharmacology Branch, DTP, NCI, 2025)
